The source of these data is patent US4499083A, “3-O-Demethyl derivatives of the istamycin B series of compounds” (Zaidan Hojin Biseibutsu Kagaku Kenkyu Kai, priority 1980, dated 1985).

Converted amounts (≈) assume the structure as drawn. Where two headings read alike, the source gives them in different places. Where only a bound is given, the exact number is not on record here.

Data set [1] concerns Staphylococcus aureus FDA 209P. In words: Antibacterial spectrum, MIC by serial dilution on nutrient agar. Format: cell-based. The settings on record: FDA209P, 37° C., 17 hours, read-out: Minimum inhibitory concentration.
In data set [2] the test system is Pseudomonas aeruginosa 99. The description is as above. Format: cell-based. The settings on record: 37° C., 17 hours, read-out: Minimum inhibitory concentration.
Data set [3] deals with Escherichia coli K-12 ML1410. Described as above. The following applies: read-out: Minimum inhibitory concentration. Format: cell-based.
Another data set has as its system Escherichia coli JR255. Described as above. The data set is classed as cell-based. The settings on record: read-out: Minimum inhibitory concentration.
For data set [4], the system named is Salmonella enteritidis 1891. The description is as above. The data set is classed as cell-based. The following applies: Salmonella enterica, 37° C., 17 hours, read-out: Minimum inhibitory concentration.
For another data set, the system named is Escherichia coli W677. The data set is described as above. Format: cell-based. The settings on record: read-out: Minimum inhibitory concentration.
The test system of data set [5] is Bacillus cereus ATCC 10702. Described as above. The data set is classed as cell-based. The settings on record: read-out: Minimum inhibitory concentration.
Data set [6] has as its system Shigella flexneri 4B JS11811. The data set is described as above. Format: cell-based. The settings on record: 4BJS11811, 37° C., 17 hours, read-out: Minimum inhibitory concentration. As for the experimental part: (§1) The antibacterial spectra of 3-O-demethylistamycin B.sesquicarbonate and 3-O-demethyl-2"-N-formimidoylistamycin B.disulphate.trihydrate are shown in Table 2, along with that of istamycin B for comparison purposes.
(§2) Minimum inhibitory concentrations (mcg/ml)*^1
(§3) *^1 Determined according to a standard serial dilution method on
(§4) nutrient agar plates which were incubated at 37° C. for 17 hours.

The test system of data set [7] is Escherichia coli K-12 C600 R135. The description is as above. The data set is classed as cell-based. The following applies: K12C600R135, 37° C., 17 hours, read-out: Minimum inhibitory concentration. Here is the method:
as §1, §2, §3, §4

Data set [8] relates to Escherichia coli K-12 ML1630. The description is as above. The data set is classed as cell-based. The settings on record: K12ML1630, 37° C., 17 hours, read-out: Minimum inhibitory concentration. Here is the method: as §1, §2, §3, §4
In data set [9] the test system is Klebsiella pneumoniae 22#3038. The description is as above. The data set is classed as cell-based. The following applies: 37° C., 17 hours, read-out: Minimum inhibitory concentration. As for the experimental part: as §1, §2, §3, §4
A further data set concerns Shigella sonnei JS11746. The data set is described as above. The data set is classed as cell-based. The following applies: 37° C., 17 hours, read-out: Minimum inhibitory concentration. Here is the method: as §1, §2, §3, §4
In data set [10] the test system is Escherichia coli K-12 ML1629. The data set is described as above. Format: cell-based. The following applies: K12ML1629, 37° C., 17 hours, read-out: Minimum inhibitory concentration. As for the experimental part:
as §1, §2, §3, §4

The test system of data set [11] is Gram-negative and Gram-positive bacteria. Nature of the data set: Antibacterial activity, overall statement. The data set is classed as cell-based. Here is the method: as §1, §3, §4
The test system of another data set is Bacillus anthracis. Nature of the data set: microbe, parasite or virus in culture. The data set is classed as cell-based. The settings on record: 17 h, read-out: Minimum inhibitory concentration.
For data set [12], the system named is Escherichia coli K-12 J5R11-2. Nature of the data set: Antibacterial spectrum, MIC by serial dilution on nutrient agar. The following applies: read-out: Minimum inhibitory concentration. The data set is classed as cell-based.
Data set [13] deals with Escherichia coli K-12 LA290 R64. Described as above. The data set is classed as cell-based. The following applies: K12LA290R64, 17 h, read-out: Minimum inhibitory concentration.
Data set [14] has as its system Pseudomonas aeruginosa B-13. The description is as above. The data set is classed as cell-based. The settings on record: B13, 37° C., 17 hours, read-out: Minimum inhibitory concentration.
A further data set in a line: in vivo. The following applies: mouse, iv.
The subject of the next data set is mice. Nature of the data set: Acute toxicity by intravenous injection in mice.
Data set [15] has as its system Gram-negative and Gram-positive bacteria. The settings on record: relative to istamycin A; earlier work; cited from earlier work.
In another data set the test system is resistant bacteria. In words: Antibacterial activity against resistant bacteria. Format: cell-based.
Another data set concerns Pseudomonas aeruginosa. Nature of the data set: Antibacterial activity against Pseudomonas aeruginosa. Format: cell-based.
Setting [16] is: Escherichia coli, K12ML1410, 17 h.
[17] abbreviates: Escherichia coli JR255, nutrient agar, 37° C., 17 hours.
The mark [18] stands for this setting: Escherichia coli W677, nutrient agar, 37° C., 17 hours.
The mark [19] stands for this setting: ATCC10702, Bacillus cereus ATCC 10702, nutrient agar, 37° C., 17 hours.
[20] abbreviates: K12J5R112, Escherichia coli K-12 J5R11-2, nutrient agar, 37° C., 17 hours.
The mark [21] stands for this setting: listed as 3-O-demethylistamycin B.

For `CNCC1CCC(N)C(OC2C(N)CC(O)C(N(C)C(=O)CNC=N)C2O)O1` (centres unmarked) [3-O-Demethyl-2"-N-formimidoylistamycin B], the MIC was determined as 0.2 µg/mL (≈ 0.497 µM) in data set [1]; 100 µg/mL (≈ 248 µM) in data set [2]; 3.13 µg/mL (≈ 7.78 µM) in data set [3] (setting [16]); 0.78 µg/mL (≈ 1.94 µM) with Escherichia coli JR255 (setting [17]); 1.56 µg/mL (≈ 3.88 µM) in [4]; 0.78 µg/mL (≈ 1.94 µM) in the data set with Escherichia coli W677 (setting [18]). Also, the MIC in data set [5] (setting [19]) came out at 1.56 µg/mL (≈ 3.88 µM); in data set [6] it was 3.13 µg/mL (≈ 7.78 µM); in [7], 12.5 µg/mL (≈ 31.1 µM); in data set [8] it was 1.56 µg/mL (≈ 3.88 µM); in [9], 3.13 µg/mL (≈ 7.78 µM); in the data set with Shigella sonnei JS11746 it was 3.13 µg/mL (≈ 7.78 µM). Also, the MIC is 1.56 µg/mL (≈ 3.88 µM) in data set [10]; less than 0.2 µg/mL with Bacillus anthracis; 1.56 µg/mL (≈ 3.88 µM) in [12] (setting [20]); 1.56 µg/mL (≈ 3.88 µM) in data set [13]; more than 100 µg/mL in [14]. Also, the “antibacterial activity (in words)” value in data set [11] is “high antibacterial activity against a wide variety of Gram-negative and Gram-positive bacteria”. For the same compound, in “in vivo”, the MTD was found to be 160 mg/kg. The “toxicity (in words)” value in the data set on mice is given as “low toxicity to animals”.
In the case of `CNCC1CCC(N)C(OC2C(N)CC(OC)C(N(C)C(=O)CN)C2O)O1` (centres unmarked) [Istamycin B, istamycin B], the MIC in data set [1] is 0.39 µg/mL (≈ 1 µM); in data set [2], more than 100 µg/mL; in data set [3] (setting [16]) it was 3.13 µg/mL (≈ 8.04 µM); in the data set with Escherichia coli JR255 (setting [17]), 0.78 µg/mL (≈ 2 µM); in [4], 1.56 µg/mL (≈ 4.01 µM); with Escherichia coli W677 (setting [18]), 1.56 µg/mL (≈ 4.01 µM). The MIC in data set [5] (setting [19]) turned out to be 1.56 µg/mL (≈ 4.01 µM); in [6], 3.13 µg/mL (≈ 8.04 µM); in [7] it was 12.5 µg/mL (≈ 32.1 µM); in [8], 1.56 µg/mL (≈ 4.01 µM); in [9], 3.13 µg/mL (≈ 8.04 µM); with Shigella sonnei JS11746 it was 3.13 µg/mL (≈ 8.04 µM). Further, the MIC in data set [10] is 1.56 µg/mL (≈ 4.01 µM); in the data set on Bacillus anthracis, less than 0.2 µg/mL; in data set [12] (setting [20]), 1.56 µg/mL (≈ 4.01 µM); in data set [13] it was 1.56 µg/mL (≈ 4.01 µM); in data set [14], more than 100 µg/mL. The “antibacterial activity compared with istamycin A” value in data set [15] is reported as “higher antibacterial activity than istamycin A”.
On to `CNCC1CCC(N)C(OC2C(N)CC(O)C(N(C)C(=O)CN)C2O)O1` (centres unmarked) [3-O-Demethylistamycin B], for which the MIC came out at 0.39 µg/mL (≈ 1.04 µM) in data set [1]; 25 µg/mL (≈ 66.6 µM) in data set [2]; 3.13 µg/mL (≈ 8.34 µM) in data set [3] (K12ML1410, Escherichia coli K-12 ML1410, nutrient agar, 37° C., 17 hours); 1.56 µg/mL (≈ 4.15 µM) in the data set with Escherichia coli JR255 (Escherichia coli, JR255, 17 h); 3.13 µg/mL (≈ 8.34 µM) in data set [4]; 1.56 µg/mL (≈ 4.15 µM) in the data set with Escherichia coli W677 (Escherichia coli, W677, 17 h). In addition, the MIC in data set [5] (Bacillus cereus, ATCC10702, 17 h) was 1.56 µg/mL (≈ 4.15 µM); in data set [6], 6.25 µg/mL (≈ 16.6 µM); in [7], 6.25 µg/mL (≈ 16.6 µM); in data set [8] it was 3.13 µg/mL (≈ 8.34 µM); in data set [9] it was 6.25 µg/mL (≈ 16.6 µM); in the data set with Shigella sonnei JS11746, 6.25 µg/mL (≈ 16.6 µM). Also, the MIC in [10] is 3.13 µg/mL (≈ 8.34 µM); with Bacillus anthracis it was less than 0.2 µg/mL; in data set [12] (Escherichia coli, K12J5R112, 17 h) it was 1.56 µg/mL (≈ 4.15 µM); in data set [13], 3.13 µg/mL (≈ 8.34 µM); in data set [14], 50 µg/mL (≈ 133 µM). In the data set with resistant bacteria, the “effectiveness against a variety of resistant bacteria (in words)” value was “effective against not only Pseudomonas aeruginosa but also a variety of resistant bacteria”. Further, the “effectiveness against Pseudomonas aeruginosa (in words)” value in the data set on Pseudomonas aeruginosa was “effective against not only Pseudomonas aeruginosa”. Besides, the “antibacterial activity (in words)” value is “high antibacterial activity” in [11]; “high antibacterial activity against a wide variety of Gram-negative and Gram-positive bacteria” in data set [11] (setting [21]). In the data set “in vivo”, this compound yielded an MTD of 160 mg/kg. The “toxicity (in words)” value in the data set with mice was “low toxicity to animals”; in the data set with mice (setting [21]), “low toxicity”.
